Key:
[1] = target: T1, cGMP-specific 3',5'-cyclic phosphodiesterase (Homo sapiens, UniProt O76074); assay: Inhibition of PDE5 at 10 uM; parameters: scale not given: the % may be the effect or the level left
[2] = target: T2, Phosphodiesterase 1 (Homo sapiens, UniProt P54750+Q01064+Q14123); assay: Inhibition of PDE1 at 10 uM; format: protein assay; parameters: scale not given: the % may be the effect or the level left
[3] = target: T1, cGMP-specific 3',5'-cyclic phosphodiesterase; assay: Inhibition of PDE5
[4] = target: T2, Phosphodiesterase 1; assay: Inhibition of PDE1; format: protein assay

Row | Compound | Activity [1] [%] | Activity [2] [%] | IC50 [3] [nM] | IC50 [4] [nM]
1 | COc1ccc(-c2nc(NC(=O)CSCC(=O)O)sc2C)cc1 | 51 | 21 | – | –
2 | O=C(O)c1ccc(-c2ccc(-c3nc(O)c4c5c(sc4n3)CCCC5)o2)cc1 | – | – | 3100 | 3700
3 | N#CC1=C(N)OC2=C(C(=O)CCC2)C1c1ccc(OCC(=O)Nc2cccc(C(F)(F)F)c2)cc1 (stereo not drawn) | 52 | 9 | – | –
4 | COc1ccccc1Nc1nc(-c2sc(N)nc2C)cs1 | – | – | 3000 | 2500
5 | NS(=O)(=O)c1ccc(-c2ccc(/C=C3/C(=O)NN(c4cccc(C(F)(F)F)c4)C3=O)o2)cc1 | 66 | 45 | – | –
6 | N#Cc1c(N)nc(SCC(=O)Nc2ccc(F)cc2)c(C#N)c1-c1ccccc1 | – | – | 1700 | 5700
7 | Cc1cccc(NCc2n[nH]c(SCC(=O)Nc3cc([N+](=O)[O-])ccc3Cl)n2)c1 | 53 | 22 | – | –
8 | Cc1cc(C)nc(NS(=O)(=O)c2ccc(NC(=O)c3cccc(NC(=O)C(F)(F)F)c3)cc2)n1 | 44 | 15 | – | –
9 | O=C(CSc1nnc(-c2ccccc2O)o1)NNC(=O)Cc1ccccc1 | 1 | 22 | – | –
10 | COc1cc(/C=C2\SC(=S)N(CC(=O)O)C2=O)ccc1OC(=O)c1cccs1 | 46 | 59 | – | –
11 | N#Cc1c(C(F)(F)F)cc(-c2cccs2)nc1SCc1ccc(C(=O)O)cc1 | – | – | 700 | 1900
12 | N#Cc1c(/N=C/c2ccc(-c3ccc(C(=O)O)cc3)o2)sc2c1CCCC2 | – | – | 2100 | 2500
13 | Cc1cc(C(=O)Nc2cccc(C(=O)O)c2)cc(S(=O)(=O)Nc2cccc(C(=O)O)c2)c1C | 19 | 49 | – | –

Further lines, results first:

Row | Activity [1] [%] | Activity [2] [%] | IC50 [3] [nM] | IC50 [4] [nM] | Compound
14 | 23 | 25 | – | – | COc1cc(C2CC(=O)NC(SCC(=O)Nc3ccc(Br)cc3)=C2C#N)ccc1O (stereo not drawn)
15 | – | – | 6300 | 2500 | Cc1ccc(-c2cc(C(=O)Nc3ccc(S(N)(=O)=O)cc3)c3ccccc3n2)s1
16 | 39 | 12 | – | – | CCOc1ccc2nc(SCC(=O)NCc3ccc(C(=O)O)cc3)sc2c1
17 | 48 | 42 | – | – | Cc1oc(C(=O)N2CCCC2C(=O)O)cc1COc1ccc2oc3ccccc3c2c1 (stereo not drawn)
18 | – | – | 8700 | 300 | Cn1c(=O)[nH]c(=O)c2c1nc(S)n2CC(O)COc1ccc2ccccc2c1 (stereo not drawn)
19 | 42 | 9 | – | – | COc1ccc(-c2csc(-n3[nH]c(C)c(C(c4ccccc4)C(C#N)C(N)=O)c3=O)n2)cc1 (stereo not drawn)

Source: ChEMBL document CHEMBL1138984, “Identification of phosphodiesterase-1 and 5 dual inhibitors by a ligand-based virtual screening optimized for lead evolution” (Bioorg Med Chem Lett, 2006)
